This note sets out measurements from patent publication US20090169538A1, “Methods of Treating or Preventing Tissue Damage Caused by Increased Blood Flow” (REGENERX BIOPHARMACEUTICALS, INC., priority 2006, published 2009).

Experiment [1] has as its system ILK and Akt. Kind of experiment: western blot of heart lysates after coronary ligation. Format: in vivo, mice. On the procedure: Because thymosin β4 upregulates ILK activity and Akt phosphorylation in cultured cells, the effects on these kinases in vivo were tested. […] Total Akt protein was not increased.
Myocardial infarction was produced in fifty-eight male C57BL/6J mice at 16 weeks of age (25-30 g) by ligation of the left anterior descending coronary artery as previously described. Twenty-nine of the ligated mice received thymosin β4 treatment immediately following ligation and the remaining twenty-nine received PBS injections. Treatment was given intracardiac with thymosin β4 (200 ng in 10 ul collagen) or with 10 ul of collagen; intraperitoneally with thymosin β4 (150 μg in 300 μl PBS) or with […]; or by both intracardiac and intraperitoneal injections. Intraperitoneal injections were given every three days until mice were sacrificed. Doses were based on previous studies of thymosin β4 biodistribution. Hearts were removed, weighed and fixed for histologic sectioning. Additional mice were operated on in a similar fashion for studies 0.5, 1, 3, 6 and 11 days after ligation.

The subject of experiment [2] is primary rat neonatal cardiomyocytes. In words: primary neonatal cardiomyocytes cultured on laminin-coated glass. Format: cell-based. As for the experimental part:
To test the response of post-natal cardiomyocytes, primary rat neonatal cardiomyocytes were cultured on laminin-coated glass and treated the cells with phosphate buffered saline (PBS) or thymosin β4. […] In addition to thymosin β4's effects on myocardial cell migration, a similar effect was observed on endothelial migration in the embryonic heart explant assay.
Primary culture of neonatal cardiomyocytes typically survived for approximately one to two weeks with some cells beating up to two weeks when grown on laminin-coated slides in our laboratory. […] In addition, the rate of beating was consistently faster in thymosin β4-treated neonatal cardiomyocytes (95 vs. 50 beats per minute, p<0.02), indicating either a change in cell-cell communication or more vigorous cardiomyocytes.

Experiment [3] concerns the target T1, PINCH (Mus musculus, UniProt Q99JW4).
T1 construct: myc or FLAG (co-immunoprecipitation only); made in house; host or cells: T7 phage amplified in E. coli BLT5615 (ELISA); Cos and 10T1/2 cells transfected (co-IP)
In words: phage display ELISA confirmation and coimmunoprecipitation with PINCH. It is filed as binding. The source says:
To investigate the potential mechanisms through which thymosin β4 might be influencing cell migration and survival events, thymosin β4 interacting proteins were searched. The amino-terminus of […] was fused with affi-gel beads resulting in exposure of the carboxy-terminus that allowed identification of previously unknown interacting proteins but prohibited association with actin. An E9.5-12.5 mouse heart T7 phage cDNA library was synthesized and screened by phage display and thymosin β4-interacting clones were enriched and confirmed by ELISA. PINCH, a LIM domain protein, was most consistently isolated in this screen and interacted with thymosin β4 in the absence of actin (ELISA). PINCH and integrin linked kinase (ILK) interact directly with one another and indirectly with the actin cytoskeleton as part of a larger complex involved in cell-extracellular matrix interactions known as the focal adhesion complex. PINCH and ILK are required for cell motility and for cell survival, in part by promoting phosphorylation of the serine-threonine kinase Akt/protein kinase B, a central kinase in survival and growth signaling pathways. […] The PINCH interaction with thymosin β4 mapped to the fourth and fifth LIM domains of PINCH while the amino terminal ankryin domain of ILK was sufficient for thymosin β4 interaction. […]
Background: An ELISA detects its analyte on a solid surface through an enzyme-linked reagent.

Experiment [4] relates to ILK. Kind of experiment: ILK localization, expression and activation (immunocytochemistry, Western). It is filed as cell-based. As for the experimental part: Because recruitment of ILK to the focal adhesion complex is important for its activation, the effects of thymosin β4 on ILK localization and expression were assayed. […] Because thymosin β4 sequesters the pool of G-actin monomers, the effects on ILK activation were dependent on thymosin β4's role in regulating the balance between polymerized F-actin and monomeric G-actin were tested. F-actin polymerization was inhibited using C3 transferase and also F-actin formation was promoted with an activated Rho, but neither intervention affected the ILK activation observed after treatment of COS1 or C2C 12 cells with thymosin β4.

T1 sequence (Q99JW4 whole entry): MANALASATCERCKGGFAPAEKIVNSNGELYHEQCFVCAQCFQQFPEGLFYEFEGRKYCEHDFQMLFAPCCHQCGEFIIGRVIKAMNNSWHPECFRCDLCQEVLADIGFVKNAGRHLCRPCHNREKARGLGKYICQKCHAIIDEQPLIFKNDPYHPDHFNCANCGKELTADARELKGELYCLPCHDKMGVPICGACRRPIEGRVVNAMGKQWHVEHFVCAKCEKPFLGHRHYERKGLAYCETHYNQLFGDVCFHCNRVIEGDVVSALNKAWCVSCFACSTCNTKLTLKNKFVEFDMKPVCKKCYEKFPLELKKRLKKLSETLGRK

Consider thymosin β4, for which the “total Akt protein” value in experiment [1] is listed as “not increased”. Besides, the “level of ILK protein in heart lysates” value in experiment [1] (compared with PBS treated mice) was “increased”. For the same substance, the “amount of phosphorylated Akt-5473” value in experiment [1] (phospho-specific antibodies) is “elevation”. Also, the “migrational distance of neonatal cardiomyocytes” value in experiment [2] (compared to PBS control, p<0.05) was “significantly increased”. Besides, in experiment [2] (laminin-coated slides, untreated cultures approximately one to two weeks), the “survival, rhythmically contracting myocytes visible” value is reported as “up to 28 days”. This substance gave a rate of beating in experiment [2] (vs. 50 in control, p<0.02) of 95 beats per minute. Besides, in experiment [3] (phage display clones, ELISA), the “interaction with PINCH in the absence of actin (ELISA)” value is on record as “interacted”. The “co-precipitation with PINCH” value in experiment [3] (plasmids transfected in cultured cells) is “co-precipitated”. In experiment [4] (C2C12 cells), the “ILK protein levels by Western analysis” value is “modest increase” and the “total Akt protein” value is on record as “unchanged”. In addition, the “phosphorylation of Akt (serine 473)” value in experiment [4] (C2C12 cells, phospho-specific antibody) is given as “increased phosphorylation”. Also, in experiment [4] (embryonic heart explants or C2C12 myoblasts, synthetic thymosin β4 10 ng/100 ul or expressing plasmid), the “ILK detection by immunocytochemistry around the cell edges” value was “markedly enhanced”.
